Assay results from the supplement of paper PMC11451515.

Key:
Conditions in all cases: 48 h
NOMO1 [1] = assay: cell viability relative to DMSO control; higher = less cytotoxic
Summary of the method: (§1)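 Viability is expressed as a percentage of DMSO wells within each plate, and cell-free wells serve as background. Seeding densities in the 1536-well plates (5 μl) were 500 cells/well for NOMO1 or SEM leukemia cells and 1000 cells/well for P12-Ichikawa. Each line was adapted for at least four passages in each medium. Library compounds in DMSO were pin-dosed at 47 μM to 0.79 nM (11 points, threefold), and CellTiter-Glo One luminescence was read after 48 h at 37°C.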

P12-Ichikawa [2] = assay: as above
Summary of the method: as §1

SEM cells [3] = assay: as above
Summary of the method: as §1

NOMO1 [4] = assay: AUC of viability dose-response curve (% viability x log10 dose units); higher = less sensitive
Summary of the method: (§2)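 In 1536-well plates, leukemia cells adapted to each medium (500 or 1000 cells/well) were exposed for 48 h at 37°C to library compounds in DMSO across 11 threefold doses, 47 μM down to 0.79 nM. Viability was read by CellTiter-Glo One luminescence and normalised per plate to DMSO and cell-free wells. A four-parameter log-logistic fit over log10 doses was integrated by trapezoidal rule. This yielded the area under the curve, with over-full-viability curves scaled and quality-control failures dropped.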

P12-Ichikawa [5] = assay: as above
Summary of the method: as §2

SEM cells [6] = assay: as above
Summary of the method: as §2

COc1cc2ncn(-c3cc(OCc4ccccc4[S+](C)(=O)[O-])c(C#N)s3)c2cc1OC
cell viability [%]
Conditions	NOMO1 [1]	P12-Ichikawa [2]	SEM cells [3]
HPLM + 10% dialyzed FBS, 0.000781 µM	101	101	102
HPLM + 10% dialyzed FBS, 0.00234 µM	91	100	102
HPLM + 10% dialyzed FBS, 0.00702 µM	105	93.8	90.9
HPLM + 10% dialyzed FBS, 0.0211 µM	101	94	105
HPLM + 10% dialyzed FBS, 0.0632 µM	84	102	95.1
HPLM + 10% dialyzed FBS, 0.19 µM	108	95.2	98.3
HPLM + 10% dialyzed FBS, 0.569 µM	92.8	96.7	98.3
HPLM + 10% dialyzed FBS, 1.71 µM	95.8	94.1	103
HPLM + 10% dialyzed FBS, 5.12 µM	82.7	84.5	78.5
HPLM + 10% dialyzed FBS, 15.4 µM	81.2	92	95.7
HPLM + 10% dialyzed FBS, 46.1 µM	68.9	77.5	82.4
RPMI 5 mM glucose + 10% FBS, 0.000781 µM	90.9	96.3	114
RPMI 5 mM glucose + 10% FBS, 0.00234 µM	89.9	99	110
RPMI 5 mM glucose + 10% FBS, 0.00702 µM	97	96.8	100
RPMI 5 mM glucose + 10% FBS, 0.0211 µM	84.6	97.8	124
RPMI 5 mM glucose + 10% FBS, 0.0632 µM	99.7	100	121
RPMI 5 mM glucose + 10% FBS, 0.19 µM	97	95.3	110
RPMI 5 mM glucose + 10% FBS, 0.569 µM	103	94.4	108
RPMI 5 mM glucose + 10% FBS, 1.71 µM	88.8	89.7	107
RPMI 5 mM glucose + 10% FBS, 5.12 µM	82.1	88.7	94.4
RPMI 5 mM glucose + 10% FBS, 15.4 µM	90.4	91.3	122
RPMI 5 mM glucose + 10% FBS, 46.1 µM	73.8	87.6	93.4
RPMI 5 mM glucose + 10% dialyzed FBS, 0.000781 µM	107	90.1	92.4
RPMI 5 mM glucose + 10% dialyzed FBS, 0.00234 µM	98.6	92.3	107
RPMI 5 mM glucose + 10% dialyzed FBS, 0.00702 µM	100	87.7	89.1
RPMI 5 mM glucose + 10% dialyzed FBS, 0.0211 µM	100	94.9	103
RPMI 5 mM glucose + 10% dialyzed FBS, 0.0632 µM	90.8	94.8	98.9
RPMI 5 mM glucose + 10% dialyzed FBS, 0.19 µM	98.7	98	110
RPMI 5 mM glucose + 10% dialyzed FBS, 0.569 µM	95.3	95.4	112
RPMI 5 mM glucose + 10% dialyzed FBS, 1.71 µM	101	92.5	101
RPMI 5 mM glucose + 10% dialyzed FBS, 5.12 µM	89.4	82.7	106
RPMI 5 mM glucose + 10% dialyzed FBS, 15.4 µM	94.8	80	98.7
RPMI 5 mM glucose + 10% dialyzed FBS, 46.1 µM	62	73.6	78.9

AUC of viability dose-response curve
Conditions	NOMO1 [4]	P12-Ichikawa [5]	SEM cells [6]
HPLM + 10% dialyzed FBS	443	450	457
RPMI 5 mM glucose + 10% FBS	435	450	461
RPMI 5 mM glucose + 10% dialyzed FBS	457	428	470

O=C1\C=C/C=C2/[C@H]3CNC[C@H](C3)CN12
cell viability [%]
Conditions	NOMO1 [1]	P12-Ichikawa [2]	SEM cells [3]
HPLM + 10% dialyzed FBS, 0.000781 µM	112	108	97.4
HPLM + 10% dialyzed FBS, 0.00234 µM	125	109	95.2
HPLM + 10% dialyzed FBS, 0.00702 µM	120	115	103
HPLM + 10% dialyzed FBS, 0.0211 µM	111	109	108
HPLM + 10% dialyzed FBS, 0.0632 µM	133	122	101
HPLM + 10% dialyzed FBS, 0.19 µM	126	122	106
HPLM + 10% dialyzed FBS, 0.569 µM	130	125	114
HPLM + 10% dialyzed FBS, 1.71 µM	129	123	104
HPLM + 10% dialyzed FBS, 5.12 µM	116	116	102
HPLM + 10% dialyzed FBS, 15.4 µM	97.9	97.5	112
HPLM + 10% dialyzed FBS, 46.1 µM	27.7	58.3	103
RPMI 5 mM glucose + 10% FBS, 0.000781 µM	105	116	101
RPMI 5 mM glucose + 10% FBS, 0.00234 µM	107	111	104
RPMI 5 mM glucose + 10% FBS, 0.00702 µM	124	120	102
RPMI 5 mM glucose + 10% FBS, 0.0211 µM	107	129	113
RPMI 5 mM glucose + 10% FBS, 0.0632 µM	110	122	123
RPMI 5 mM glucose + 10% FBS, 0.19 µM	120	125	114
RPMI 5 mM glucose + 10% FBS, 0.569 µM	112	124	103
RPMI 5 mM glucose + 10% FBS, 1.71 µM	123	132	127
RPMI 5 mM glucose + 10% FBS, 5.12 µM	111	113	113
RPMI 5 mM glucose + 10% FBS, 15.4 µM	100	112	112
RPMI 5 mM glucose + 10% FBS, 46.1 µM	46.9	54.8	61.2
RPMI 5 mM glucose + 10% dialyzed FBS, 0.000781 µM	96.7	111	108
RPMI 5 mM glucose + 10% dialyzed FBS, 0.00234 µM	98.4	109	76.6
RPMI 5 mM glucose + 10% dialyzed FBS, 0.00702 µM	107	110	101
RPMI 5 mM glucose + 10% dialyzed FBS, 0.0211 µM	109	108	118
RPMI 5 mM glucose + 10% dialyzed FBS, 0.0632 µM	119	121	112
RPMI 5 mM glucose + 10% dialyzed FBS, 0.19 µM	118	120	123
RPMI 5 mM glucose + 10% dialyzed FBS, 0.569 µM	122	132	120
RPMI 5 mM glucose + 10% dialyzed FBS, 1.71 µM	112	126	119
RPMI 5 mM glucose + 10% dialyzed FBS, 5.12 µM	102	118	126
RPMI 5 mM glucose + 10% dialyzed FBS, 15.4 µM	104	99.9	103
RPMI 5 mM glucose + 10% dialyzed FBS, 46.1 µM	64.2	67.7	113

AUC of viability dose-response curve
Conditions	NOMO1 [4]	P12-Ichikawa [5]	SEM cells [6]
HPLM + 10% dialyzed FBS	447	457	462
RPMI 5 mM glucose + 10% FBS	458	459	466
RPMI 5 mM glucose + 10% dialyzed FBS	464	459	456

C[C@H]1C[C@H]2[C@@H]3CC[C@](O)(C(=O)CO)[C@@]3(C)C[C@H](O)[C@@H]2[C@@]\4(C)/C=C\C(=O)\C=C14
cell viability [%]
Conditions	NOMO1 [1]	P12-Ichikawa [2]	SEM cells [3]
HPLM + 10% dialyzed FBS, 0.000781 µM	82.1	96.9	78.4
HPLM + 10% dialyzed FBS, 0.00234 µM	110	97.4	85
HPLM + 10% dialyzed FBS, 0.00702 µM	115	96.9	76.7
HPLM + 10% dialyzed FBS, 0.0211 µM	104	91.7	87.1
HPLM + 10% dialyzed FBS, 0.0632 µM	113	98.7	86.2
HPLM + 10% dialyzed FBS, 0.19 µM	115	88.1	75.6
HPLM + 10% dialyzed FBS, 0.569 µM	92.3	64.1	57.1
HPLM + 10% dialyzed FBS, 1.71 µM	89.9	64.9	41.3
HPLM + 10% dialyzed FBS, 5.12 µM	89.6	57.3	47.4
HPLM + 10% dialyzed FBS, 15.4 µM	94.1	57.6	46.9
HPLM + 10% dialyzed FBS, 46.1 µM	95.6	56.9	42.6
RPMI 5 mM glucose + 10% FBS, 0.000781 µM	81.4	91.2	76.9
RPMI 5 mM glucose + 10% FBS, 0.00234 µM	95.3	96.3	104
RPMI 5 mM glucose + 10% FBS, 0.00702 µM	90.6	95.4	90
RPMI 5 mM glucose + 10% FBS, 0.0211 µM	101	96.8	101
RPMI 5 mM glucose + 10% FBS, 0.0632 µM	104	78.5	90.5
RPMI 5 mM glucose + 10% FBS, 0.19 µM	97.1	80	102
RPMI 5 mM glucose + 10% FBS, 0.569 µM	93.1	55.2	71.3
RPMI 5 mM glucose + 10% FBS, 1.71 µM	89.5	50.4	39.2
RPMI 5 mM glucose + 10% FBS, 5.12 µM	89.5	47.6	51.5
RPMI 5 mM glucose + 10% FBS, 15.4 µM	88.4	48.2	51.2
RPMI 5 mM glucose + 10% FBS, 46.1 µM	92.8	45	40.2
RPMI 5 mM glucose + 10% dialyzed FBS, 0.000781 µM	72.9	85.3	90.6
RPMI 5 mM glucose + 10% dialyzed FBS, 0.00234 µM	88.5	88.2	92.4
RPMI 5 mM glucose + 10% dialyzed FBS, 0.00702 µM	91.4	84.1	101
RPMI 5 mM glucose + 10% dialyzed FBS, 0.0211 µM	102	93.5	95.7
RPMI 5 mM glucose + 10% dialyzed FBS, 0.0632 µM	102	88.2	93.2
RPMI 5 mM glucose + 10% dialyzed FBS, 0.19 µM	93.1	74.2	96.3
RPMI 5 mM glucose + 10% dialyzed FBS, 0.569 µM	100	53.3	72.1
RPMI 5 mM glucose + 10% dialyzed FBS, 1.71 µM	90.4	40.6	40.9
RPMI 5 mM glucose + 10% dialyzed FBS, 5.12 µM	101	40.6	45.7
RPMI 5 mM glucose + 10% dialyzed FBS, 15.4 µM	105	38.6	45
RPMI 5 mM glucose + 10% dialyzed FBS, 46.1 µM	84.6	34.9	33.3

AUC of viability dose-response curve
Conditions	NOMO1 [4]	P12-Ichikawa [5]	SEM cells [6]
HPLM + 10% dialyzed FBS	456	378	315
RPMI 5 mM glucose + 10% FBS	444	341	357
RPMI 5 mM glucose + 10% dialyzed FBS	451	314	352
